Laboratory results reported in the supplement of paper PMC9663587.

What was measured:
[1] = compound: COc1cccc2c1C(=O)c1c(O)c3c(c(O)c1C2=O)C[C@@](O)(C(=O)CO)C[C@@H]3O[C@H]1C[C@H](N)[C@H](O)[C@H](C)O1 [Doxorubicin]
[2] = compound: CN(C)C/C=C/C(=O)Nc1ccc(O[C@@H]2CCC[C@@H](Nc3ncc(Cl)c(-c4c[nH]c5ccccc45)n3)C2)cc1 [BSJ-01-175]
[3] = compound: CC(C)n1nc(-c2ccc3oc(N)nc3c2)c2c(N)ncnc21 [INK128/MLN0128]
[4] = compound: Cc1nc(-c2cn3c(n2)-c2ccc(-c4cnn(C(C)(C)C(N)=O)c4)cc2OCC3)n(C(C)C)n1 [Taselisib/GDC0032]
[5] = compound: Cc1cc(Nc2ncc(Cl)c(Nc3ccccc3S(=O)(=O)C(C)C)n2)c(OC(C)C)cc1C1CCNCC1 [Ceritinib/LDK378]
[6] = compound: T1, CC(=O)c1c(C)c2cnc(Nc3ccc(N4CCN(CCOCCOCCOCCNC(=O)COc5cccc6c5C(=O)N(C5CCC(=O)NC5=O)C6=O)CC4)cn3)nc2n(C2CCCC2)c1=O [BSJ-03-123]
[7] = compound: CNCc1ccc(-c2[nH]c3cc(F)cc4c3c2CCNC4=O)cc1 [Rucaparib]
[8] = compound: O=C(CCCCCCC(=O)Nc1ccccc1)NO [Vorinostat]
[9] = compound: T2, CN(C)C/C=C/C(=O)Nc1ccc(C(=O)N2CCC[C@@H](Nc3ncc(Cl)c(-c4c[nH]c5ccccc45)n3)C2)cc1 [THZ531]
[10] = compound: CO[C@@H](C)Cn1c(=O)n(C)c2cnc3ccc(-c4cncc(C(C)(C)O)c4)cc3c21
[11] = compound: CC(=O)c1c(C)c2cnc(Nc3ccc(N4CCNCC4)cn3)nc2n(C2CCCC2)c1=O
[12] = compound: CC[C@@H]1C(=O)N(C)c2cnc(Nc3ccc(C(=O)N[C@H]4CC[C@H](N5CCN(CC6CC6)CC5)CC4)cc3OC)nc2N1C(C)C [Volasertib/BI6727]
[13] = compound: T3, CCOc1cc2ncc(C#N)c(Nc3ccc(OCc4ccccn4)c(Cl)c3)c2cc1NC(=O)/C=C/CN(C)C [Neratinib/HKI272]
[14] = compound: CC(=O)Nc1cccc(-n2c(=O)n(C3CC3)c(=O)c3c(Nc4ccc(I)cc4F)n(C)c(=O)c(C)c32)c1
[15] = compound: Cc1nc(Nc2ncc(C(=O)Nc3c(C)cccc3Cl)s2)cc(N2CCN(CCO)CC2)n1 [Dasatinib]
[16] = compound: CNC(=O)c1cccc(-c2ccc3c(N4CCOC[C@@H]4C)nc(N4CCOC[C@@H]4C)nc3n2)c1 [AZD2014]
[17] = compound: CN(C)C/C=C/C(=O)Nc1ccc(C(=O)Nc2cccc(Nc3ncc(Cl)c(-c4c[nH]c5ccccc45)n3)c2)cc1 [THZ1]; experiment: increase in dead-cell fraction, 72 h; higher = more death;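 further: breast cancer cell lines in 384-well plates, stained with Hoechst plus LIVE/DEAD far red dye and imaged, cells above an LDR intensity threshold counted dead, Hoechst-negative corpses included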
[18] = compound: T1, BSJ-03-123; experiment: as above
[19] = compound: CCc1cnn2c(NCc3ccc[n+]([O-])c3)cc(N3CCCC[C@H]3CCO)nc12; experiment: as above
[20] = compound: T2, THZ531; experiment: as above
[21] = compound: T3, Neratinib/HKI272; experiment: as above
[22] = compound: C=CC(=O)Nc1ccc(C(=O)Nc2[nH]nc3c2CN(C(=O)N[C@H](CN(C)C)c2ccccc2)C3(C)C)cc1 [YKL-5-124]; experiment: as above
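Wherever GR50, 72 h is given: breast cancer and non-malignant breast epithelial cell lines, Deep Dye Drop or Dye Drop imaging, nine half-log doses, GR normalized to time-zero plates and DMSO-only controls.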

SUM159
GR50, 72 h [1]: 0.021 µM | GR50, 72 h [2]: 0.0681 µM | GR50, 72 h [3]: 0.0561 µM | GR50, 72 h [4]: 0.182 µM | GR50, 72 h [5]: 2.1 µM | GR50, 72 h [6]: 1.94 µM | GR50, 72 h [7]: > 10 µM | GR50, 72 h [8]: 3.28 µM | GR50, 72 h [9]: > 1 µM | GR50, 72 h [10]: 0.00127 µM | GR50, 72 h [11]: 1.73 µM | GR50, 72 h [12]: 0.0247 µM | GR50, 72 h [13]: > 3.16 µM | GR50, 72 h [14]: 0.0316 µM | GR50, 72 h [15]: > 10 µM | GR50, 72 h [16]: 0.176 µM | increase in dead-cell fraction ([17]; 0.0001 µM): -0.005 | increase in dead-cell fraction ([17]; 0.0003162 µM): -0.0055 | increase in dead-cell fraction ([17]; 0.001 µM): -0.0004 | increase in dead-cell fraction ([17]; 0.003162 µM): -0.0006 | increase in dead-cell fraction ([17]; 0.01 µM): 0.001 | increase in dead-cell fraction ([17]; 0.03162 µM): 0.0024 | increase in dead-cell fraction ([17]; 0.1 µM): 0.0084 | increase in dead-cell fraction ([17]; 0.3162 µM): 0.0412 | increase in dead-cell fraction ([17]; 1 µM): 0.212 | increase in dead-cell fraction ([18]; 0.001 µM): -0.0023 | increase in dead-cell fraction ([18]; 0.003162 µM): 0.0027 | increase in dead-cell fraction ([18]; 0.01 µM): -0.003 | increase in dead-cell fraction ([18]; 0.03162 µM): 0.0063 | increase in dead-cell fraction ([18]; 0.1 µM): 0.0055 | increase in dead-cell fraction ([18]; 0.3162 µM): 0.0076 | increase in dead-cell fraction ([18]; 1 µM): 0.0134 | increase in dead-cell fraction ([18]; 3.162 µM): 0.0322 | increase in dead-cell fraction ([18]; 10 µM): 0.28 | increase in dead-cell fraction ([19]; 0.0001 µM): -0.0009 | increase in dead-cell fraction ([19]; 0.0003162 µM): -0.0008 | increase in dead-cell fraction ([19]; 0.001 µM): -0.0012 | increase in dead-cell fraction ([19]; 0.003162 µM): 0.0013 | increase in dead-cell fraction ([19]; 0.01 µM): 0.0076 | increase in dead-cell fraction ([19]; 0.03162 µM): 0.299 | increase in dead-cell fraction ([19]; 0.1 µM): 0.226 | increase in dead-cell fraction ([19]; 0.3162 µM): 0.238 | increase in dead-cell fraction ([19]; 1 µM): 0.246 | increase in dead-cell fraction ([20]; 0.0001 µM): 0.0035 | increase in dead-cell fraction ([20]; 0.0003162 µM): -0.0023 | increase in dead-cell fraction ([20]; 0.001 µM): -0.002 | increase in dead-cell fraction ([20]; 0.003162 µM): -0.003 | increase in dead-cell fraction ([20]; 0.01 µM): 0.0062 | increase in dead-cell fraction ([20]; 0.03162 µM): -0.0033 | increase in dead-cell fraction ([20]; 0.1 µM): -0.0055 | increase in dead-cell fraction ([20]; 0.3162 µM): -0.0016 | increase in dead-cell fraction ([20]; 1 µM): 0.0161 | increase in dead-cell fraction ([21]; 0.0003162 µM): -0.005 | increase in dead-cell fraction ([21]; 0.001 µM): -0.0025 | increase in dead-cell fraction ([21]; 0.003162 µM): -0.0041 | increase in dead-cell fraction ([21]; 0.01 µM): -0.0075 | increase in dead-cell fraction ([21]; 0.03162 µM): -0.0087 | increase in dead-cell fraction ([21]; 0.1 µM): -0.0118 | increase in dead-cell fraction ([21]; 0.3162 µM): -0.0133 | increase in dead-cell fraction ([21]; 1 µM): -0.01 | increase in dead-cell fraction ([21]; 3.162 µM): -0.004 | increase in dead-cell fraction ([22]; 0.001 µM): 0.08 | increase in dead-cell fraction ([22]; 0.003162 µM): 0.19 | increase in dead-cell fraction ([22]; 0.01 µM): 0.247 | increase in dead-cell fraction ([22]; 0.03162 µM): 0.231 | increase in dead-cell fraction ([22]; 0.1 µM): 0.221 | increase in dead-cell fraction ([22]; 0.3162 µM): 0.273 | increase in dead-cell fraction ([22]; 1 µM): 0.246 | increase in dead-cell fraction ([22]; 3.162 µM): 0.332 | increase in dead-cell fraction ([22]; 10 µM): 0.436

EVSAT
GR50, 72 h [1]: 0.00911 µM | GR50, 72 h [2]: 0.146 µM | GR50, 72 h [3]: 0.0112 µM | GR50, 72 h [4]: 0.517 µM | GR50, 72 h [5]: 6.18 µM | GR50, 72 h [6]: 3.31 µM | GR50, 72 h [7]: > 10 µM | GR50, 72 h [8]: 2.5 µM | GR50, 72 h [9]: 0.124 µM | GR50, 72 h [10]: 0.00155 µM | GR50, 72 h [11]: > 3.16 µM | GR50, 72 h [12]: 0.00932 µM | GR50, 72 h [13]: > 3.16 µM | GR50, 72 h [14]: > 1 µM | GR50, 72 h [15]: 0.166 µM | GR50, 72 h [16]: 0.00617 µM | increase in dead-cell fraction ([17]; 0.0001 µM): -0.0011 | increase in dead-cell fraction ([17]; 0.0003162 µM): 0.0011 | increase in dead-cell fraction ([17]; 0.001 µM): 0.0012 | increase in dead-cell fraction ([17]; 0.003162 µM): 0.0031 | increase in dead-cell fraction ([17]; 0.01 µM): 0.0078 | increase in dead-cell fraction ([17]; 0.03162 µM): 0.0292 | increase in dead-cell fraction ([17]; 0.1 µM): 0.181 | increase in dead-cell fraction ([17]; 0.3162 µM): 0.641 | increase in dead-cell fraction ([18]; 0.001 µM): -0.0001 | increase in dead-cell fraction ([18]; 0.003162 µM): 0.0011 | increase in dead-cell fraction ([18]; 0.01 µM): 0.0093 | increase in dead-cell fraction ([18]; 0.03162 µM): 0.0004 | increase in dead-cell fraction ([18]; 0.1 µM): 0.0074 | increase in dead-cell fraction ([18]; 0.3162 µM): -0.0005 | increase in dead-cell fraction ([18]; 1 µM): 0.0163 | increase in dead-cell fraction ([18]; 3.162 µM): 0.0309 | increase in dead-cell fraction ([18]; 10 µM): 0.221 | increase in dead-cell fraction ([19]; 0.0001 µM): -0.0004 | increase in dead-cell fraction ([19]; 0.0003162 µM): 0.0006 | increase in dead-cell fraction ([19]; 0.001 µM): 0.0006 | increase in dead-cell fraction ([19]; 0.003162 µM): -0.003 | increase in dead-cell fraction ([19]; 0.01 µM): -0.0037 | increase in dead-cell fraction ([19]; 0.03162 µM): 0.107 | increase in dead-cell fraction ([20]; 0.0001 µM): 0.0033 | increase in dead-cell fraction ([20]; 0.0003162 µM): -0.0022 | increase in dead-cell fraction ([20]; 0.001 µM): -0.0014 | increase in dead-cell fraction ([20]; 0.003162 µM): -0.0011 | increase in dead-cell fraction ([20]; 0.01 µM): 0.0002 | increase in dead-cell fraction ([20]; 0.03162 µM): -0.0005 | increase in dead-cell fraction ([20]; 0.1 µM): 0.0333 | increase in dead-cell fraction ([20]; 0.3162 µM): 0.372 | increase in dead-cell fraction ([21]; 0.0003162 µM): -0.0012 | increase in dead-cell fraction ([21]; 0.001 µM): -0.002 | increase in dead-cell fraction ([21]; 0.003162 µM): -0.0011 | increase in dead-cell fraction ([21]; 0.01 µM): -0.0031 | increase in dead-cell fraction ([21]; 0.03162 µM): -0.0026 | increase in dead-cell fraction ([21]; 0.1 µM): -0.0027 | increase in dead-cell fraction ([21]; 0.3162 µM): -0.002 | increase in dead-cell fraction ([21]; 1 µM): 0.0019 | increase in dead-cell fraction ([21]; 3.162 µM): 0.0083 | increase in dead-cell fraction ([22]; 0.001 µM): 0.0967 | increase in dead-cell fraction ([22]; 0.003162 µM): 0.0973 | increase in dead-cell fraction ([22]; 0.01 µM): 0.147 | increase in dead-cell fraction ([22]; 0.03162 µM): 0.16 | increase in dead-cell fraction ([22]; 0.1 µM): 0.143 | increase in dead-cell fraction ([22]; 0.3162 µM): 0.185 | increase in dead-cell fraction ([22]; 1 µM): 0.183 | increase in dead-cell fraction ([22]; 3.162 µM): 0.204 | increase in dead-cell fraction ([22]; 10 µM): 0.697
